Read-outs that look alike come from different tables or passages of the source.
Columns and labels:
[1] = Dissolving compounds to make 10 mM stock solution; type: physicochemical; conditions: deionized water or assay friendly solvents, hot water
Protocol: Following assay establishment, the test compounds were tested for binding affinities. The concentrations selected for the experiments were chosen according to what was found for memantine in our assay. The first task was to dissolve the compounds and make up the 10 mM stock solution for further experiments. Those compounds that were made into salt format were easy to dissolve in deionized water, but the other compounds were difficult to bring into solution. Several “assay friendly” solvents have been tried, such as molecusol, acetic acid and propylene glycol followed by putting the vial into hot water.

[2] = test system: C57/BL6 male mice; experiment: Pentylenetetrazol (PTZ)-induced seizure/death model; type: in vivo, mouse; conditions: for # mice with L3 seizure / # mice with L4 seizure / # of deaths within 30 min: 6 mice; for # of deaths within 30 min / PTZ-induced death: PTZ 100 mg/kg; for Time to death: mice that died within 30 min
Protocol: Although the protection against death is the key endpoint, other effects of the compounds on PTZ-induced seizures were also assessed using multiple parameters. For the mice that did die within the 30 minute observation window, the time of death was also compared. […] The seizure occurrence rate, onset time and number of level 3 (L3) seizure (repetitive seizures but the animal can still stand) and level 4 (L4) seizure (repetitive seizures and the animal loses righting) are also analyzed. The MDT compound (30 mg/kg) treated groups show a certain degree of improvement compared to control. No data from MK801 or memantine were included because the seizures occurring under these treatments are totally different from the control or MDT injected groups due to side effects (“high jumping”).

[3] = test system: C57/BL6 male mice; conditions: for # of deaths / # of extensions: 6 mice; for MES-induced death: mice
[4] = test system: C57/BL6 male mice; experiment: Rotarod test (balance and coordination, side effects)
Protocol: The side effects of the compounds was primarily evaluated using the rotarod test, which mainly assesses the balancing and coordination of mice. The comparisons were made on fall time of the mice between the first measure (pre-treatment) and second measure taken 20 min after the drug/vehicle injection in the same group (paired t-test). […] Comparisons of the rotatod fall times after drug/vehicle dosing were made between drug treatment and control groups (unpaired t-test).

[5] = test system: NMDA receptor; experiment: Whole-cell voltage-clamp recordings of NMDA evoked currents in hypocretin neurons (hypothalamic slices); type: cell-based, mouse; conditions: for inhibition of the peak amplitude of NMDA evoked currents: bath application, -60 mV, mean±SEM
[6] = test system: primary neurons from rat cerebral cortex; experiment: NMDA-induced LDH release assay in primary cortical neurons (neuroprotection); type: cell-based
Protocol: The neuroprotective properties of drugs have been studied in vitro, using neurons cultured from cortex, cerebellum or retina. […] Neurotoxicity is determined in this assay by measuring lactate dehydrogenase (LDH), a method which is simple, accurate and reproducible. We conducted pilot studies to test if poly-lysine-coated plates would be suitable as a matrix upon which to plate fetal neurons, compared to astrocyte-coated plates. We also compared the use of growth medium to neurobasal medium supplemented with B27 in the pilot experiments. The concentrations of NMDA (300-500 μM), glycine (10-50 μM), and memantine (10-100 μM) were varied, and optimum concentrations and times determined from these pilot studies were then chosen for the main study. The assay is described below.
Fetal rat neocortical cells were cultured on a mouse astroglial feeder layer. To obtain mouse astroglial cells for the feeder layer, cortices were harvested from 1-day old Swiss Webster mice (Charles River, Hollister, Calif.) according to the procedure described by Rose et al (1993). After dissecting cortices in ice-cold dissecting medium, they were minced and incubated in 0.09% trypsin in media stock for 1 hr, followed by resuspension in growth medium containing 10% equine serum and 10% fetal bovine serum. A single-cell suspension was obtained by triturating through fire-bored glass pipettes, and the resulting cell suspension was plated at a density of 0.5-0.75 hemispheres/24-well plate/9.6 ml, with 0.4 ml/well. Plates were incubated in a humidified incubator at 37° C., 5% CO2. Astroglial cells become confluent in about 2-3 weeks, at which time these cultures are ready to be used as feeder layers upon which neuronal cultures can be plated. Neuronal cells were obtained from gestational Sprague-Dawley rats E16-E18, using a similar dissection procedure. Rat embryos were dissected to obtain cortical tissue, which was plated as a single-cell suspension at a density of 1.4 hemispheres/24-well plate/9.6 ml, with 0.4 ml/well. These cells were plated on the existing astroglial feeder layer, and were incubated at 37° C., 5% CO2. After 5 days in culture, cytosine arabinoside (10 μM) was added to the wells to inhibit glial cell proliferation, and after 24 hours, the medium was replaced with fresh growth medium. Cells were fed with fresh growth medium every 2 days, until the experiments were performed. For coating plates with poly-lysine, we used poly-d-lysine hydrobromide (Sigma Cat # P7280) at a concentration of 0.1 mg/ml to coat each well using a minimum volume of 0.2 ml/well. After coating for 5 minutes, the solution was aspirated and wells were rinsed thoroughly with sterile tissue culture grade water. After drying for 2 hours, plates were ready for use. Neuronal cultures were plated onto poly-lysine-coated plates at the same density as above. For the pilot study, some of the cultures were fed with 1:1 ratio of growth medium: neurobasal medium (GIBCO)+B-27 supplement (2%), while the rest of the cultures were fed with growth medium alone (Losi et al., 2006). For the main study, we used astroglial feeder layers to plate the neuronal cultures, and used a mix (1:1) of growth medium with neurobasal medium+B-27 supplement for feeding the cultures.
After 11-14 days in culture, neuronal cells were confluent and experiments were performed. Cells were washed twice using sterile Locke's buffer (154 mM NaCl, 5.6 mM KCl, 2.3 mM CaCl2, 3.6 mM NaHCO3, 5.5 mM D-glucose, 5 mM HEPES, pH 7.4), and then exposed to the various treatment compounds. […] After 15 minutes, cultures were washed twice and incubated overnight in media stock. After 24 hours, supernatants and lysates were collected to measure LDH activity. LDH activity was measured by the reduction of NAD, which was utilized in the stoichiometric conversion of a tetrazolium dye using a kit (Sigma TOX-7). Supernatants were removed from the wells and centrifuged before LDH measurements. The adherent cells were lysed to obtain total LDH. […]

[7] = NMDA 300 uM + MK801 1 uM, Plate #4, poly-lysine-coated rat neurons, GM/NB + B-27 fed, 24 hour incubation
[8] = NMDA 300 uM + MK801 1 uM, Plate #5, astrocyte-coated rat neurons, GM fed, 24 hour incubation
[9] = NMDA 300 uM + MK801 1 uM, astrocyte-coated rat neurons, GM/NB + B-27 fed, 24 hour incubation
[10] = NMDA 500 μM + MK801 1 μM, astrocyte-coated rat neurons, GM/NB + B-27 fed, 21 hour incubation
[11] = NMDA 500 uM + MK801 1 uM, poly-lysine-coated rat neurons, GM/NB + B-27 fed, 40 hour incubation

## O=C(O)C12CC3CC4C5CC(CC41)CC2C5C3 [MDT-17]
[1]
  dissolution for 10 mM stock solution: did not go into solution, or came out with time

## O=C(O)C12CC3CC4C1CC1CC2C(C3)C4(C(=O)O)C1 [MDT-19]
[1]
  dissolution for 10 mM stock solution: did not go into solution, or came out with time

## O=C(O)C12CC3C4CC5(C(=O)O)CC3C(C1)C(C5)C4C2 [MDT-20]
[1]
  dissolution for 10 mM stock solution: did not go into solution, or came out with time

## CC12CC3CC4C1CC1(N)CC2C(C3)C4(C)C1 [MDT-23, 4-amino-1,6-dimethyl-diamantane]
[2]; 10 mg/kg i.p.
  # L3 per mouse: 4.67 ± 1.65
  # L4 per mouse: 1.67 ± 0.49
  L3 onset time: 3.00 ± 0.20 min
  L3 seizure rate: 0.50
  L4 onset time: 13.80 ± 4.40 min
  L4 seizure rate: 1.00
  Mortality rate: 0.50
  # mice with L3 seizure: 3
  # mice with L4 seizure: 6
  # of deaths within 30 min: 3
  Time to death: 14.00 ± 6.60 min
[2]; 30 mg/kg i.p.
  # L3 per mouse: 3.83 ± 2.44
  # L4 per mouse: 1.00 ± 0.0
  L3 onset time: 5.00 ± 1.90 min
  L3 seizure rate: 1.00
  L4 onset time: 19.80 ± 4.20 min
  L4 seizure rate: 1.00
  Mortality rate: 1.00
  # mice with L3 seizure: 6
  # mice with L4 seizure: 6
  # of deaths within 30 min: 6
  Time to death: 22.00 ± 2.90 min
[2]; 30 mg/kg i.p., mice that died within 30 minute window
  average time of death: 22 ± 2.9 min
[2]; 10 and 30 mg/kg i.p., 30 min observation
  PTZ-induced death: a certain reduction in PTZ-induced death
[2]; high dose 30 mg/kg i.p., 30 min observation
  PTZ-induced death: died within 30 minutes
[3]; 10 mg/kg i.p.
  Extension rate: 1.00
  Mortality rate: 0.67
  # of deaths: 4
  # of extensions: 6
[3]; 30 mg/kg i.p.
  Extension rate: 1.00
  Mortality rate: 0.17
  # of deaths: 1
  # of extensions: 6
[3]; 10 and 30 mg/kg i.p.
  MES-induced death: dose dependent reduction in MES-induced death
[4]; after, 20 min after 10 mg/kg i.p.
  Fall Time: 42.98 ± 2.82 min
[4]; after, 20 min after 30 mg/kg i.p.
  Fall Time: 31.37 ± 3.83 min
[4]; before (pre-treatment), 10 mg/kg group
  Fall Time: 28.63 ± 3.10 min
[4]; before (pre-treatment), 30 mg/kg group
  Fall Time: 39.77 ± 6.14 min
[4]; high dose 30 mg/kg i.p., paired t-test
  rotarod fall time, pre-treatment vs 20 min after injection: loss of performance
[4]; high dose 30 mg/kg i.p., unpaired t-test
  rotarod performance after dosing vs. control: statistically significant decreases in rotarod performance
[5]; 10 μM
  inhibition of the peak amplitude of NMDA evoked currents: 11.6±4.3%
[5]; 100 μM
  inhibition of the peak amplitude of NMDA evoked currents: 22.9±9.3%
[5]; washout of the compound
  reversibility of inhibition of NMDA evoked currents upon washout: not reversible
[6]; Rattus norvegicus, Primary neuron, two experiments, 300 uM NMDA + 50 μM glycine 15 minutes, LDH after 24 hours, read-out: average EC50 (±SD), NMDA-induced LDH release
  EC50: 11.1 ± 9.3 µM

## C[C@]12N[C@H](Cc3ccccc31)c1ccccc12 [MK-801, reference compound]
[2]; 1.0 mg/kg i.p.
  Mortality rate: 0
  # of deaths within 30 min: 0
[2]; 1 mg/kg i.p.
  PTZ-induced death: full protection
[3]; 0.5 mg/kg i.p.
  Extension rate: 0.50
  Mortality rate: 0.50
  MES-induced death: little effect compared to control
  # of deaths: 3
  # of extensions: 3
[4]; 1 mg/kg i.p.
  hyperactivity (side effect): observed
[5]; 100 nM
  inhibition of the peak amplitude of NMDA evoked currents: 58±9.4%
[6]; [7]
  % (Control Wash = 100): 143%
  Secreted LDH (Avg): 0.62
  Secreted/(total + secreted) (Avg): 15.63
  Total LDH (Avg): 3.34
[6]; [8]
  % (Control Wash = 100): 92%
  Secreted LDH (Avg): 0.18
  Secreted/(total + secreted) (Avg): 5.43
  Total LDH (Avg): 3.18
[6]; [9]
  % (Control Wash = 100): 241%
  Secreted LDH (Avg): 0.74
  Secreted/(total + secreted) (Avg): 17.39
  Total LDH (Avg): 3.51
[6]; [10]
  % (Control Wash = 100): 125%
  Secreted LDH (Avg): 0.43
  Secreted/(total + secreted) (Avg): 10.39
  Total LDH (Avg): 3.71
[6]; [11]
  % (Control Wash = 100): 96%
  Secreted LDH (Avg): 0.36
  Secreted/(total + secreted) (Avg): 11.04
  Total LDH (Avg): 2.90
